Like-named read-outs stand apart in the source and are kept apart here. No end group written: not given here.
Biological target: T1, GPR103 L193^ECL2A (Homo sapiens, UniProt Q96P65, L193A)
T1 construct: we used human full-length QRFPR-encoding plasmids; expressed in transfected cells; host or cells: HEK293 cells, pCAGGS vector
T1 sequence (Q96P65 1-431 L193A): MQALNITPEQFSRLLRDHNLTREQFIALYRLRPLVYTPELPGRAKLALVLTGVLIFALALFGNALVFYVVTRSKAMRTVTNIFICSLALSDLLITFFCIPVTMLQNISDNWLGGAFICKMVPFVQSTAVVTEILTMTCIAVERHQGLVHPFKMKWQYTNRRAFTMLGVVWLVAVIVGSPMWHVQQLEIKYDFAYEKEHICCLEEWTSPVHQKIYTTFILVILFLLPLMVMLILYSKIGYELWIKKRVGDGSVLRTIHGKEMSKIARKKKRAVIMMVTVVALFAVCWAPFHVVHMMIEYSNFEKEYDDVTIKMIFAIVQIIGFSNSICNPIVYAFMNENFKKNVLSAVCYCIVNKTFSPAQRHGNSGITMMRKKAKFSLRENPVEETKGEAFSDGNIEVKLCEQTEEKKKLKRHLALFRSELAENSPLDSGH
Test: TGFα shedding assay; Exp. level WT (1:50)
Format: cell-based

Emax (Exp. #1): 89.95 % WT | Emax (Exp. #2): 86.94 % WT | Emax (Exp. #3): 94.38 % WT | Emax (mean, read-out: Emax): 90.4% | EC50 (n = 3): 0.182 µM | Emax (n = 3, read-out: Emax): 93.8 ± 1.8%
Substance: TSGPLGNLAEELNGYSRKKGGFSFRF-NH2 [QRFP26]

Reference: PMC11187126, “Structure and dynamics of the pyroglutamylated RF-amide peptide QRFP receptor GPR103” (Nature Communications, 2024)
